Measured values taken from patent publication US20160287589A1, “SUBSTITUTED-IMIDAZOPYRIDAZINES” (BAYER PHARMA AKTIENGESELLSCHAFT, priority 2013, published 2016).

Experiments:
MKNK1 [1] = molecular target: T1, MKNK1 (Homo sapiens, UniProt Q9BUB5, T385D); assay: MKNK1 kinase assay (MKNK1 TR-FRET assay); format: biochemical; conditions: 10 μM ATP, 15 min preincubation
T1 construct: GST (N); purchased Carna Biosciences 02-145; host or cells: insect cells (baculovirus expression system)

MKNK1 [2] = molecular target: T1, MKNK1; assay: MKNK1 kinase high ATP assay (TR-FRET-based); format: biochemical; conditions: 2 mM ATP, 15 min preincubation
Summary of the method: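 TR-FRET read-out (anti-phospho-S6 Ser236 antibody, Eu/XL665) of biotin-peptide phosphorylation (0.06 μM) at high ATP (2 mM final). Enzyme was GST-MKNK1 full length, T344D, pre-bound to compound for 15 min before a 30 min reaction at 22 °C, pH 7.5. Inhibition scaled between no-inhibitor (0%) and no-enzyme (100%) wells.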

T1 sequence (Q9BUB5 1-424 isoform Q9BUB5-2 T344D): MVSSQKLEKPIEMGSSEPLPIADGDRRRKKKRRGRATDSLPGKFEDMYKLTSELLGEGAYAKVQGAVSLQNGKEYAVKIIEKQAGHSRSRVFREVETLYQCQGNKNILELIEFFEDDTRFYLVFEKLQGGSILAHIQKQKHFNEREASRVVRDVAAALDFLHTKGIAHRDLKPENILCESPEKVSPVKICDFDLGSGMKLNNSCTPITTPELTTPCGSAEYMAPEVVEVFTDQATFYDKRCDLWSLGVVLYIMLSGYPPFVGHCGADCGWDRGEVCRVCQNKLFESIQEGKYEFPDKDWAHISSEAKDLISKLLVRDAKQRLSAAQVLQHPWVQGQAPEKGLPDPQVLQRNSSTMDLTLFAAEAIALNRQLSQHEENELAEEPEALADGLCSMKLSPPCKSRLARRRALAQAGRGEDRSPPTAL

Compound | IC50 (MKNK1 [1]; Table 1a) [nM] | IC50 (MKNK1 [2]; Table 2a) [nM] | IC50 (MKNK1 [1]; Table 1b) [nM] | IC50 (MKNK1 [2]; Table 2b) [nM]
O=C(NCCOc1ccc2ncc(-c3cc4ccccc4o3)n2n1)c1cccs1 [Example I-64, N-(2-{[3-(1-Benzofuran-2-yl)imidazo[1,2-b]-pyridazin-6-yl]oxy}ethyl)thiophene-2-carboxamide] | 4.7 | 10.5 |  | 
O=C(NCCOc1ccc2ncc(-c3cc4ccccc4o3)n2n1)c1ccccc1Cl [Example I-65, N-(2-{[3-(1-Benzofuran-2-yl)imidazo[1,2-b]-pyridazin-6-yl]oxy}ethyl)-2-chlorobenzamide] | 5.2 | 11.8 |  | 
O=C(NCCOc1ccc2ncc(-c3cc4ccccc4o3)n2n1)C1CCOCC1 [Example I-66, N-(2-{[3-(1-Benzofuran-2-yl)imidazo[1,2-b]-pyridazin-6-yl]oxy}ethyl)tetrahydro-2H-pyran-4-carboxamide] | 7.3 | 14.9 |  | 
O=C(CO)NCCOc1ccc2ncc(-c3cc4ccccc4o3)n2n1 [Example I-67, N-(2-{[3-(1-Benzofuran-2-yl)imidazo[1,2-b]-pyridazin-6-yl]oxy}ethyl)-2-hydroxyacetamide] | 6.6 | 20.3 |  | 
O=C(NCCOc1ccc2ncc(-c3cc4ccccc4o3)n2n1)C1CCC1 [Example I-68, N-(2-{[3-(1-Benzofuran-2-yl)imidazo[1,2-b]-pyridazin-6-yl]oxy}ethyl)cyclobutane-carboxamide] | 7.8 | 20.6 |  | 
Cc1cccc(C(=O)NCCOc2ccc3ncc(-c4cc5ccccc5o4)n3n2)c1 [Example I-69, N-(2-{[3-(1-Benzofuran-2-yl)imidazo[1,2-b]-pyridazin-6-yl]oxy}ethyl)-3-methylbenzamide] | 13.7 | 36.9 |  | 
O=C(NCCOc1ccc2ncc(-c3cc4ccccc4o3)n2n1)c1ccccn1 [Example I-70, N-(2-{[3-(1-Benzofuran-2-yl)imidazo[1,2-b]-pyridazin-6-yl]oxy}ethyl)pyridine-2-carboxamide] | 15.1 | 45.8 |  | 
Cc1ccccc1C(=O)NCCOc1ccc2ncc(-c3cc4ccccc4o3)n2n1 [Example I-71, N-(2-{[3-(1-Benzofuran-2-yl)imidazo[1,2-b]-pyridazin-6-yl]oxy}ethyl)-2-methylbenzamide] | 4.6 | 14.4 |  | 
CC(C)CC(=O)NCCOc1ccc2ncc(-c3cc4ccccc4o3)n2n1 [Example I-72, N-(2-{[3-(1-Benzofuran-2-yl)imidazo[1,2-b]-pyridazin-6-yl]oxy}ethyl)-3-methylbutanamide] | 4.8 | 14.7 |  | 
CCC(C)C(=O)NCCOc1ccc2ncc(-c3cc4ccccc4o3)n2n1 (stereo not shown) [Example I-73, N-(2-{[3-(1-Benzofuran-2-yl)imidazo[1,2-b]-pyridazin-6-yl]oxy}ethyl)-2-methylbutanamide] | 5.6 | 16.5 |  | 
CCCCC(=O)NCCOc1ccc2ncc(-c3cc4ccccc4o3)n2n1 [Example I-74, N-(2-{[3-(1-Benzofuran-2-yl)imidazo[1,2-b]-pyridazin-6-yl]oxy}ethyl)pentanamide] | 5.4 | 16.7 |  | 
O=C(Cc1ccccc1)NCCOc1ccc2ncc(-c3cc4ccccc4o3)n2n1 [Example I-75, N-(2-{[3-(1-Benzofuran-2-yl)imidazo[1,2-b]-pyridazin-6-yl]oxy}ethyl)-2-phenylacetamide] | 6 | 17.7 |  | 
O=C(CC1CC1)NCCOc1ccc2ncc(-c3cc4ccccc4o3)n2n1 [Example I-76, N-(2-{[3-(1-Benzofuran-2-yl)imidazo[1,2-b]-pyridazin-6-yl]oxy}ethyl)-2-cyclopropylacetamide] | 7.3 | 21.1 |  | 
O=C(NCCOc1ccc2ncc(-c3cc4ccccc4o3)n2n1)c1ccco1 [Example I-77, N-(2-{[3-(1-Benzofuran-2-yl)imidazo[1,2-b]-pyridazin-6-yl]oxy}ethyl)furan-2-carboxamide] | 7.9 | 22.2 |  | 
O=C(NCCOc1ccc2ncc(-c3cc4ccccc4o3)n2n1)C1CCCO1 (stereo not shown) [Example I-78, N-(2-{[3-(1-Benzofuran-2-yl)imidazo[1,2-b]-pyridazin-6-yl]oxy}ethyl)tetrahydrofuran-2-carboxamide] | 6.7 | 23 |  | 
Cn1ccc(C(=O)NCCOc2ccc3ncc(-c4cc5ccccc5o4)n3n2)n1 [Example I-79, N-(2-{[3-(1-Benzofuran-2-yl)imidazo[1,2-b]-pyridazin-6-yl]oxy}ethyl)-1-methyl-1H-pyrazole-3-carboxamide] | 10.1 | 25.5 |  | 

Compound | IC50 (MKNK1 [1]; Table 1a) [nM] | IC50 (MKNK1 [2]; Table 2a) [nM] | IC50 (MKNK1 [1]; Table 1b) [nM] | IC50 (MKNK1 [2]; Table 2b) [nM]
CC(=O)NC[C@@H](C)Oc1ccc2ncc(-c3cc4ccccc4o3)n2n1 [Example I-80, N-[(2R)-2-{[3-(1-Benzofuran-2-yl)imidazo[1,2-b]pyridazin-6-yl]oxy}-propyl]acetamide] | 24.5 | 47.7 |  | 
c1cc(N2CCOCC2)c2cc(-c3cnc4ccc(OC[C@H]5CNCCO5)nn34)oc2c1 [II-1, 3-[4-(Morpholin-4-yl)-1-benzofuran-2-yl]-6-[(2R)-morpholin-2-ylmethoxy]-imidazo[1,2-b]pyridazine] |  |  | 8.5 | 20
C[C@H](N)COc1ccc2ncc(-c3cc4c(N5CCOCC5)cccc4o3)n2n1 [II-2, (2S)-1-({3-[4-(Morpholin-4-yl)-1-benzofuran-2-yl]imidazo[1,2-b]pyridazin-6-yl}oxy)propan-2-amine] |  |  | 16 | 36
CC(C)(C)OC(=O)N[C@H]1C[C@H](Oc2ccc3ncc(-c4cc5c(N6CCOCC6)cccc5o4)n3n2)C1 [II-3, tert-Butyl [trans-3-({3-[4-(morpholin-4-yl)-1-benzofuran-2-yl]imidazo[1,2-b]-pyridazin-6-yl}oxy)cyclobutyl]carbamate] |  |  | 110 | 196
N[C@H]1C[C@H](Oc2ccc3ncc(-c4cc5c(N6CCOCC6)cccc5o4)n3n2)C1 [II-4, trans-3-({3-[4-(Morpholin-4-yl)-1-benzofuran-2-yl]imidazo[1,2-b]pyridazin-6-yl}oxy)cyclobutanamine] |  |  | 18 | 28
O=C1CC[C@H](COc2ccc3ncc(-c4cc5c(N6CCOCC6)cccc5o4)n3n2)N1 [II-5, (5R)-5-[({3-[4-(Morpholin-4-yl)-1-benzofuran-2-yl]imidazo[1,2-b]pyridazin-6-yl}oxy)methyl]pyrrolidin-2-one] |  |  | 15 | 27
COC[C@H]1CCCN1c1cccc2oc(-c3cnc4ccc(OCCCS(C)(=O)=O)nn34)cc12 [II-6, 3-{4-[(2R)-2-(Methoxymethyl)pyrrolidin-1-yl]-1-benzofuran-2-yl}-6-[3-(methyl-sulfonyl)propoxy]imidazo[1,2-b]pyridazine] |  |  | 7.1 | 14
COC[C@H]1CCCN1c1cccc2oc(-c3cnc4ccc(OC[C@H]5CNCCO5)nn34)cc12 [II-7, 3-{4-[(2R)-2-(Methoxymethyl)pyrrolidin-1-yl]-1-benzofuran-2-yl}-6-[(2R)-morpholin-2-ylmethoxy]imidazo[1,2-b]pyridazine] |  |  | 6.3 | 4.2
COC[C@H]1CCCN1c1cccc2oc(-c3cnc4ccc(OC[C@H](C)N)nn34)cc12 [II-8, (2S)-1-[(3-{4-[(2R)-2-(Methoxymethyl)pyrrolidin-1-yl]-1-benzofuran-2-yl}-imidazo[1,2-b]pyridazin-6-yl)oxy]propan-2-amine] |  |  | 2 | 2.7
COC[C@H]1CCCN1c1cccc2oc(-c3cnc4ccc(OC[C@H]5CCC(=O)N5)nn34)cc12 [II-9, (5R)-5-{[(3-{4-[(2R)-2-(Methoxymethyl)pyrrolidin-1-yl]-1-benzofuran-2-yl}imidazo[1,2-b]pyridazin-6-yl)oxy]methyl}pyrrolidin-2-one] |  |  | 0.8 | 0.6
COC[C@H]1CCCN1c1cccc2oc(-c3cnc4ccc(OC)nn34)cc12 [II-10, 6-Methoxy-3-{4-[(2R)-2-(methoxymethyl)pyrrolidin-1-yl]-1-benzofuran-2-yl}-imidazo[1,2-b]pyridazine] |  |  | 6.5 | 5
COC[C@H]1CCCN1c1cccc2oc(-c3cnc4ccc(O[C@H]5C[C@H](N)C5)nn34)cc12 [II-11, trans-3-[(3-{4-[(2R)-2-(Methoxymethyl)pyrrolidin-1-yl]-1-benzofuran-2-yl}imidazo[1,2-b]pyridazin-6-yl)oxy]cyclobutanamine] |  |  | 2.4 | 3.5
CS(=O)(=O)CCCOc1ccc2ncc(-c3cc4c(N5CCN(c6ccccc6)CC5)cccc4o3)n2n1 [II-12, 6-[3-(Methylsulfonyl)propoxy]-3-[4-(4-phenylpiperazin-1-yl)-1-benzofuran-2-yl]-imidazo[1,2-b]pyridazine] |  |  | 24 | 67
c1cc(N2CCOCC2)c2cc(-c3cnc4ccc(O[C@@H]5CCNC5)nn34)oc2c1 [II-13, 3-[4-(Morpholin-4-yl)-1-benzofuran-2-yl]-6-[(3R)-pyrrolidin-3-yloxy]imidazo[1,2-b]pyridazine] |  |  | 39 | 58
O=C1CC[C@H](COc2ccc3ncc(-c4cc5c(N6CCN(c7ccccc7)CC6)cccc5o4)n3n2)N1 [II-14, (5R)-5-[({3-[4-(4-Phenylpiperazin-1-yl)-1-benzofuran-2-yl]imidazo[1,2-b]-pyridazin-6-yl}oxy)methyl]pyrrolidin-2-one] |  |  | 7 | 27
C[C@H](N)COc1ccc2ncc(-c3cc4c(N5CCN(c6ccccc6)CC5)cccc4o3)n2n1 [II-15, (2S)-1-({3-[4-(4-Phenylpiperazin-1-yl)-1-benzofuran-2-yl]imidazo[1,2-b]-pyridazin-6-yl}oxy)propan-2-amine] |  |  | 59 | 137
